The record followed here is patent publication US7598245B2 (Vertex Pharmaceuticals Incorporated, priority 2003, dated 2009).

This experiment concerns the target T1, PDK-1 (Homo sapiens, UniProt O15530).
T1 sequence (O15530 1-556): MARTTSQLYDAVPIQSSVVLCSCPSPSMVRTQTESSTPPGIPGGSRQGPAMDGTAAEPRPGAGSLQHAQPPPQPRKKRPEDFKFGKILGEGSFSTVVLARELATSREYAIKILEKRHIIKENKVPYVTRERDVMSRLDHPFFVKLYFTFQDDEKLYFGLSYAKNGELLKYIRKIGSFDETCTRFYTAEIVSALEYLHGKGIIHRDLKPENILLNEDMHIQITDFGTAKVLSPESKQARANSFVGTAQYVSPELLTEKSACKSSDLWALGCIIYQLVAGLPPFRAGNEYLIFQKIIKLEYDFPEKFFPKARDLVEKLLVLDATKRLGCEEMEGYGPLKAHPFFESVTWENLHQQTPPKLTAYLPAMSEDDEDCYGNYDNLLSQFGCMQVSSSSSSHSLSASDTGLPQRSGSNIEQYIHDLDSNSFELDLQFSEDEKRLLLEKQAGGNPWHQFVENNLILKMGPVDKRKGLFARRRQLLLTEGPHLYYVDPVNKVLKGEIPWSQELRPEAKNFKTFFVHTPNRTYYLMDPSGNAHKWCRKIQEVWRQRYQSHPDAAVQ
Briefly: PDK-1 inhibition, radioactive-phosphate incorporation assay. The settings on record: 40 μM ATP. Type of experiment: biochemical. How it is done:
Compounds were screened for their ability to inhibit PDK-1 using a radioactive-phosphate incorporation assay (Pitt and Lee, J. Biomol. Screen., (1996) 1, 47). Assays were carried out in a mixture of 100 mM HEPES (pH 7.5), 10 mM MgCl2, 25 mM NaCl, 2 mM DTT. Final substrate concentrations in the assay were 40 μM ATP (Sigma Chemicals) and 65 μM peptide (PDKtide, Upstate, Lake Placid, N.Y.). Assays were carried out at 30° C. and 25 nM PDK-1 in the presence of ˜27.5 nCi/μL of [γ-^32P]ATP (Amersham Pharmacia Biotech, Amersham, UK). An assay stock buffer solution was prepared containing all of the reagents listed above, with the exception of ATP, and the test compound of interest. 15 μl of the stock solution was placed in a 96 well plate followed by addition of 1 μl of 0.5 mM DMSO stock containing the test compound (final compound concentration 25 μM, final DMSO concentration […]). The plate was preincubated for about 10 minutes at 30° C. and the reaction initiated by addition of 4 μl ATP (final concentration 40 μM).
The reaction was stopped after 10 minutes by the addition of 100 μL 100 mM phosphoric acid, 0.01% Tween-20. A phosphocellulose 96 well plate (Millipore, Cat no. MAPHNOB50) was pretreated with 100 μL 100 mM phosphoric acid, 0.01% Tween-20 prior to the addition of the reaction mixture (100 μL). The spots were left to soak for at least 5 minutes, prior to wash steps (4×200 μL 100 mM phosphoric acid, 0.01% Tween-20). After drying, 20 μL Optiphase ‘SuperMix’ liquid scintillation cocktail (Perkin Elmer) was added to the well prior to scintillation counting (1450 Microbeta Liquid Scintillation Counter, Wallac).
`OC[C@H]1CCCN(c2cc(-n3cnc(Nc4ccccc4)n3)ccn2)C1` [Compound I-65]: the Ki (as a rule, a dissociation constant, usually derived from enzyme kinetics or from competition with a known ligand) is 1000 to 10000 nM.

On to `c1ccc(-n2cnc(Nc3ccc(N4CCOCC4)nc3)n2)cc1` [Compound I-134], for which the Ki was 1000 to 10000 nM.

Take `COc1cc(Nc2ncn(-c3ccccc3)n2)cc(OC)c1OC` [Compound I-42]: the Ki lay within 1000 to 10000 nM.

For the compound `CC(=O)N1[C@H](C)CN(c2cc(-n3cnc(Nc4ccccc4)n3)ccn2)C[C@@H]1C` [Compound I-74], the Ki is less than 1000 nM.
